# Columns and labels:
# Assay in all cases: KinomeScan kinase panel
# Assay type in all cases: binding
# [1] = molecular target: T1, SYK (Homo sapiens, UniProt P43405)
# T1 construct: purchased DiscoveRx Corporation (KinomeScan)
# Protocol: (§1) In this example, the compound prepared in Example 10, N1-[4-[[7-[[1-(diethoxyphosphorylmethyl)-4-piperidinyl]methoxyl]-6-methoxyl-4-quinolyl]oxyl]-3-fluorophenyl]-N1′-(4-fluorophenyl)cyclopropane-1,1-dicarboxamide is tested for the inhibitory effect in the 442-kinase panel of KinomeScan™ (www.kinomescan.com) from DiscoveRx Corporation (4215 Sorrento Valley Blvd, San Diego, Calif. 92121) at 1000 nM of the compound concentration, the results are shown in the following Table 5:
# (§2) For the detailed information of the screening technique, see Fabian, M. A. et al, Nat., Biotechnol. 2005, 23, 329 and Karaman, M. W. et al, Nat., Biotechnol. 2008, 26, 127. It can be seen from the following representative results that, the compound according to the present invention has significant inhibitory effect on kinases including c-Met, KDR or VEGFR2, RET, PDGFR-β, c-KIT, Flt3, MEK5, DDR1, LOK, CSF1R, EPHA7, EPHA8, EPHB6, MKNK2, BLK, HIPK4, HCK, Flt4 and the mutants thereof
# [2] = molecular target: T2, CDK11 (Homo sapiens, UniProt Q9BWU1)
# T2 construct: purchased DiscoveRx Corporation (KinomeScan)
# Protocol: as §1, §2
# [3] = molecular target: T3, DYRK1A (Homo sapiens, UniProt Q13627)
# T3 construct: purchased DiscoveRx Corporation (KinomeScan)
# Protocol: as §1, §2
# [4] = molecular target: T4, LZK (Homo sapiens, UniProt O43283)
# T4 construct: purchased DiscoveRx Corporation (KinomeScan)
# Protocol: as §1, §2
# [5] = molecular target: T5, QSK (Homo sapiens, UniProt Q9Y2K2)
# T5 construct: purchased DiscoveRx Corporation
# T5 sequence (Q9Y2K2 whole entry): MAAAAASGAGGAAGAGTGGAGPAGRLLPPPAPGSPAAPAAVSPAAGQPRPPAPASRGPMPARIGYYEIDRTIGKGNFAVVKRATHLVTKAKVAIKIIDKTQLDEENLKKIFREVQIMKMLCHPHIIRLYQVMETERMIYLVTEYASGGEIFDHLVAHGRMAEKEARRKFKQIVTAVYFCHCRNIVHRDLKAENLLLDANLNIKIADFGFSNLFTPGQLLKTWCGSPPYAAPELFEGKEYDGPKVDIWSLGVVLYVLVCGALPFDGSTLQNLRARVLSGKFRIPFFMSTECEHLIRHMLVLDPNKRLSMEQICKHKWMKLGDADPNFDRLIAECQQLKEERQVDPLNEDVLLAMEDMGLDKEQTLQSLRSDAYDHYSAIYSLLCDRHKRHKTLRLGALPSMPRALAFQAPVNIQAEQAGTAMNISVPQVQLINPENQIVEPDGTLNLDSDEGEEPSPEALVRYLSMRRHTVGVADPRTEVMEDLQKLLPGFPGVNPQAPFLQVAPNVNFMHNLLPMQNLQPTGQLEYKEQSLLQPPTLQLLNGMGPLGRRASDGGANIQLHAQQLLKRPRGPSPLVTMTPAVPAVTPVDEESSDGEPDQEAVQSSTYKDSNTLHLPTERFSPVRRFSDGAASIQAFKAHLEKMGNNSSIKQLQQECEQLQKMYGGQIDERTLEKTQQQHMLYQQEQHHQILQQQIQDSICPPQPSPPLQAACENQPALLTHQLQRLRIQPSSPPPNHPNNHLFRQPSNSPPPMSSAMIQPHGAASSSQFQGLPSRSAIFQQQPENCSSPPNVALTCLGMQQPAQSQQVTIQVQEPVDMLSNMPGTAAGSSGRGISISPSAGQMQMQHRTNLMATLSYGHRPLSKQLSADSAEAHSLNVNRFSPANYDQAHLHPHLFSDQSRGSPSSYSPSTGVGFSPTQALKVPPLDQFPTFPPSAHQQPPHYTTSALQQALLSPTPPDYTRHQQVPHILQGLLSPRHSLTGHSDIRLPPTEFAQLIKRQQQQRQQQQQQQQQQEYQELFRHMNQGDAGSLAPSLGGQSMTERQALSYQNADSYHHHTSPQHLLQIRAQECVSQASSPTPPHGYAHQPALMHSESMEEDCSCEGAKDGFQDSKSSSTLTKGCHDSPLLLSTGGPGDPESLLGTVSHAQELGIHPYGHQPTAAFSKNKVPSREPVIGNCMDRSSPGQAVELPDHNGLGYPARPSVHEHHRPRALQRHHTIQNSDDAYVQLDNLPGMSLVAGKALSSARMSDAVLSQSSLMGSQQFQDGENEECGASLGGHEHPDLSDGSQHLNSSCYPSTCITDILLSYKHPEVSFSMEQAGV
# Protocol: as §1, §2
# [6] = molecular target: T6, CSNK1G2 (Homo sapiens, UniProt P78368)
# T6 construct: purchased DiscoveRx Corporation (KinomeScan)
# Protocol: as §1, §2
# [7] = molecular target: T7, EGFR (Homo sapiens, UniProt P00533)
# T7 construct: purchased DiscoveRx Corporation (KinomeScan)
# Protocol: as §1, §2
# [8] = molecular target: T8, PIK3CA(M1043I) (Homo sapiens, UniProt P42336, M1043I)
# T8 construct: purchased DiscoveRx Corporation (KinomeScan)
# T8 sequence (P42336 whole entry M1043I): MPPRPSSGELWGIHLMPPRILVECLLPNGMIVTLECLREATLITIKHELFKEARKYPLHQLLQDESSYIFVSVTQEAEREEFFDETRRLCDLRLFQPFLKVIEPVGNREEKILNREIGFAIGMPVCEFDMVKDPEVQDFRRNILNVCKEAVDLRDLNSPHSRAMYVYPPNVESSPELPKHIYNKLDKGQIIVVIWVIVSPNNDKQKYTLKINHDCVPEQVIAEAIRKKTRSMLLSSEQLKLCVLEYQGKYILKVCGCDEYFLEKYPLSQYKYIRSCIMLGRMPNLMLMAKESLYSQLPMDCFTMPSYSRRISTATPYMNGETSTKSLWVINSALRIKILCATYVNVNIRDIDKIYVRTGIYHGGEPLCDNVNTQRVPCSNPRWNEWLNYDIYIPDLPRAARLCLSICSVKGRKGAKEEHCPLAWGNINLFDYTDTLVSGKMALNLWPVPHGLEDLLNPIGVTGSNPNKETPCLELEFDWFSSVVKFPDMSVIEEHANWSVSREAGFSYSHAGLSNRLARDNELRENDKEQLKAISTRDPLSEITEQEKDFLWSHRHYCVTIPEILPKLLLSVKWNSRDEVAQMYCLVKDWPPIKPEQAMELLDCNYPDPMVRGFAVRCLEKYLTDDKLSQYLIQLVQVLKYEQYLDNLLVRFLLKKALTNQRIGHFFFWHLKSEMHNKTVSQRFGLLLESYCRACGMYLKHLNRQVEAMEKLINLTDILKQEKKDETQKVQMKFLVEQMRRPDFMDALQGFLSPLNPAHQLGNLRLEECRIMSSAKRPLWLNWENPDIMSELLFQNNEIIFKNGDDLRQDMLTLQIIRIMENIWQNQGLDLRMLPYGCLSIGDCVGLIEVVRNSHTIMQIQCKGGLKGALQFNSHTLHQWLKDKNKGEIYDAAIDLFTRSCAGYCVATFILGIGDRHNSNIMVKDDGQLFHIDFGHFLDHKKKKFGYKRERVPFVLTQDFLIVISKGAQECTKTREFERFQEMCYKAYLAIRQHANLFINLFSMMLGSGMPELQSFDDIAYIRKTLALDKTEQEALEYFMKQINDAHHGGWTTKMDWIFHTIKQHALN
# Protocol: as §1, §2
# [9] = molecular target: T9, PDGFRA (Homo sapiens, UniProt P16234)
# T9 construct: purchased DiscoveRx Corporation (KinomeScan panel)
# T9 sequence (P16234 24-1089): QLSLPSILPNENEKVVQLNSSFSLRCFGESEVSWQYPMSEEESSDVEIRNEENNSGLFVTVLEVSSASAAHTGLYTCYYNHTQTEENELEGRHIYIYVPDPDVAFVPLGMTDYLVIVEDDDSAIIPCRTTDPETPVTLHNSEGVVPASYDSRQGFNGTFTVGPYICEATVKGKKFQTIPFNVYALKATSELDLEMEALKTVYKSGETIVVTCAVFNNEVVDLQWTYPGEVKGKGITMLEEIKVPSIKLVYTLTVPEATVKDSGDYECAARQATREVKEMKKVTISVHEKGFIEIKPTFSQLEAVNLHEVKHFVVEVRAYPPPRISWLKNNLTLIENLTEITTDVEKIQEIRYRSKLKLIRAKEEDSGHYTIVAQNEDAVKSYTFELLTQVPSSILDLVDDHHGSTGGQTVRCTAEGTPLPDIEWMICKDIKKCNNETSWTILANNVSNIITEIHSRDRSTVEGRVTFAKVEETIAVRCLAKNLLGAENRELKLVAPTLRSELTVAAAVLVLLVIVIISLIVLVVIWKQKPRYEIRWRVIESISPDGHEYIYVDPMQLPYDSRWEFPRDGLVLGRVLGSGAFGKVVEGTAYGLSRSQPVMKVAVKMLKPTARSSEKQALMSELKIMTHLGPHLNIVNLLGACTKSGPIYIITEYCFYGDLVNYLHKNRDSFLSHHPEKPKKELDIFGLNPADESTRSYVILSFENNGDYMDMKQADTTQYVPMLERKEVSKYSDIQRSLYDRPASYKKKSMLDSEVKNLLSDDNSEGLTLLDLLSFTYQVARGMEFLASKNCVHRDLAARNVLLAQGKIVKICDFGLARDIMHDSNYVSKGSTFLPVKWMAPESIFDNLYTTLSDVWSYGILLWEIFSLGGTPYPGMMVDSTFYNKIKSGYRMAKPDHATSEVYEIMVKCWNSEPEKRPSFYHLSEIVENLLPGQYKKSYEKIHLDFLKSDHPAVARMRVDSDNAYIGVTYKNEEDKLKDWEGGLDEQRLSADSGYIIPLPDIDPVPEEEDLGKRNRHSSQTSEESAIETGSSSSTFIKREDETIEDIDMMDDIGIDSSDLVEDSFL
# Protocol: as §1, §2
# [10] = molecular target: T10, MELK (Homo sapiens, UniProt Q14680)
# T10 construct: purchased DiscoveRx Corporation (KinomeScan)
# Protocol: as §1, §2
# [11] = molecular target: T11, CDC2L2 (Homo sapiens, UniProt Q9UQ88)
# T11 construct: purchased DiscoveRx Corporation (KinomeScan)
# Protocol: as §1, §2
# [12] = molecular target: T12, TIE1 (Homo sapiens, UniProt P35590)
# T12 construct: purchased DiscoveRx Corporation (KinomeScan)
# Protocol: as §1, §2
# [13] = molecular target: T13, RIPK5 (Homo sapiens, UniProt Q6XUX3)
# T13 construct: purchased DiscoveRx Corporation
# Protocol: as §1, §2
# [14] = molecular target: T14, CAMKK1 (Homo sapiens, UniProt Q8N5S9)
# T14 construct: purchased DiscoveRx Corporation (KinomeScan)
# Protocol: as §1, §2
# [15] = molecular target: T15, MST1 (Homo sapiens, UniProt Q13043)
# T15 construct: purchased DiscoveRx Corporation (KinomeScan)
# Protocol: as §1, §2
# [16] = molecular target: T16, PIK3C2G (Homo sapiens, UniProt O75747)
# T16 construct: purchased DiscoveRx Corporation (KinomeScan)
# Protocol: as §1, §2
# [17] = molecular target: T17, MAPKAPK5 (Homo sapiens, UniProt Q8IW41)
# T17 construct: purchased DiscoveRx Corporation (KinomeScan)
# Protocol: as §1, §2
# [18] = molecular target: T18, TYK2(JH1domain-catalytic) (Homo sapiens, UniProt P29597)
# T18 construct: JH1domain; purchased DiscoveRx Corporation (KinomeScan)
# T18 sequence (P29597 897-1176 limits assumed): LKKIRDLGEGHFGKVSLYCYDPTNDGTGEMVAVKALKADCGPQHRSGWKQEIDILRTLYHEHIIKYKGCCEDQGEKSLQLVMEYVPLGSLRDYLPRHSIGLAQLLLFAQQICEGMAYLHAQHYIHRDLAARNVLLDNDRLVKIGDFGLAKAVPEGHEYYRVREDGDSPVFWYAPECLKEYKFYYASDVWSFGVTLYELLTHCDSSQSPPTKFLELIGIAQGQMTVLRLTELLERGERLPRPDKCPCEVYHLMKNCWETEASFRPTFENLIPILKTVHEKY
# Protocol: as §1, §2
# [19] = molecular target: T19, TLK2 (Homo sapiens, UniProt Q86UE8)
# T19 construct: purchased DiscoveRx Corporation (KinomeScan)
# Protocol: as §1, §2
# [20] = molecular target: T20, KIT(L576P) (Homo sapiens, UniProt P10721, L576P)
# T20 construct: purchased DiscoveRx Corporation (KinomeScan)
# Protocol: as §1, §2
# [21] = molecular target: T21, PIK3CA(E545A) (Homo sapiens, UniProt P42336, E545A)
# T21 construct: purchased DiscoveRx Corporation (KinomeScan)
# T21 sequence (P42336 whole entry E545A): as the sequence (P42336 whole entry M1043I) above, with E545A, I1043M counted along it
# Protocol: as §1, §2
# [22] = molecular target: T22, P38-alpha (Homo sapiens, UniProt Q16539)
# T22 construct: purchased DiscoveRx Corporation (KinomeScan panel)
# T22 sequence (Q16539 whole entry): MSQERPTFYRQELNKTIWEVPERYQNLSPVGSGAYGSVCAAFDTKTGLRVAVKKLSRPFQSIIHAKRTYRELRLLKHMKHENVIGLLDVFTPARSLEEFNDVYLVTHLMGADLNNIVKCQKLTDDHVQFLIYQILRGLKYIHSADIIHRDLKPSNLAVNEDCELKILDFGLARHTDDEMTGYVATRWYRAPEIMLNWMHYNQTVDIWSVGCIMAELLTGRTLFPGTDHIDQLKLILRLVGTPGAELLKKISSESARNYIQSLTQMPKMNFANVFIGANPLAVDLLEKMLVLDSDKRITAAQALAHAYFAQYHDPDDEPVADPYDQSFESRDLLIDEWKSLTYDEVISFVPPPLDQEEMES
# Protocol: as §1, §2
# [23] = molecular target: T23, DMPK (Homo sapiens, UniProt Q09013)
# T23 construct: purchased DiscoveRx Corporation (KinomeScan)
# Protocol: as §1, §2
# [24] = molecular target: T24, RAF1 (Homo sapiens, UniProt P04049)
# T24 construct: purchased DiscoveRx Corporation
# T24 sequence (P04049 whole entry): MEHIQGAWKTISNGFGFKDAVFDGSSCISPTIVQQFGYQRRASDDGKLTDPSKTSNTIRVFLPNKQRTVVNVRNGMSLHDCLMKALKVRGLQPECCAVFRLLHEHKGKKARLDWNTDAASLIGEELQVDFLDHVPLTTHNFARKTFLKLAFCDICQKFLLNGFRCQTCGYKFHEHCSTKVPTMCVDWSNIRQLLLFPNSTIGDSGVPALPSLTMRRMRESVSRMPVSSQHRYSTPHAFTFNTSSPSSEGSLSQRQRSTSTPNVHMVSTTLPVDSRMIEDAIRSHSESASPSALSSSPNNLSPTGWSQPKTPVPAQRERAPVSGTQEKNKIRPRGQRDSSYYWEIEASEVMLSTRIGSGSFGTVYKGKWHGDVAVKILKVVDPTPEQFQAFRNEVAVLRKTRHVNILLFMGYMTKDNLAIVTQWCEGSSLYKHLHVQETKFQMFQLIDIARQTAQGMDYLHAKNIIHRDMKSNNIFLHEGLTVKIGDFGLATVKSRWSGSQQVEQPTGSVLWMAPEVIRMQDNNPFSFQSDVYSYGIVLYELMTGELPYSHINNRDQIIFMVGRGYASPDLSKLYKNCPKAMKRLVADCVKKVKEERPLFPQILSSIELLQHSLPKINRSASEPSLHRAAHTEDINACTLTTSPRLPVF
# Protocol: as §1, §2
# [25] = molecular target: T25, MAP4K4 (Homo sapiens, UniProt O95819)
# T25 construct: purchased DiscoveRx Corporation (KinomeScan)
# Protocol: as §1, §2
# [26] = molecular target: T26, MKNK1 (Homo sapiens, UniProt Q9BUB5)
# T26 construct: purchased DiscoveRx Corporation (KinomeScan)
# Protocol: as §1, §2
# [27] = molecular target: T27, EGFR(T790M) (Homo sapiens, UniProt P00533, T790M)
# T27 construct: purchased DiscoveRx Corporation (KinomeScan)
# Protocol: as §1, §2
# [28] = molecular target: T28, HIPK3 (Homo sapiens, UniProt Q9H422)
# T28 construct: purchased DiscoveRx Corporation (KinomeScan)
# Protocol: as §1, §2
# [29] = molecular target: T29, MAP4K3 (Homo sapiens, UniProt Q8IVH8)
# T29 construct: purchased DiscoveRx Corporation (KinomeScan)
# Protocol: as §1, §2
# [30] = molecular target: T30, JAK1(JH1domain-catalytic) (Homo sapiens, UniProt P23458)
# T30 construct: JAK1(JH1domain-catalytic); purchased DiscoveRx Corporation (KinomeScan)
# T30 sequence (P23458 875-1153 limits assumed): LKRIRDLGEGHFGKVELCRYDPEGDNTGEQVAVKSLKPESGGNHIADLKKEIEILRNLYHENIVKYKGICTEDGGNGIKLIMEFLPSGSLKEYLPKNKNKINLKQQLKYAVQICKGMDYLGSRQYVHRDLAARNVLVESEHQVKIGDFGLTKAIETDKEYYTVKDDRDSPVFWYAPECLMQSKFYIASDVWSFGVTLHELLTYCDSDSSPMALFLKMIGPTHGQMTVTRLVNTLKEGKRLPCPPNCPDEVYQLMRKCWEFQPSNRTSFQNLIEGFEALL
# Protocol: as §1, §2
# [31] = molecular target: T31, FLT3(D835Y) (Homo sapiens, UniProt P36888, D835Y)
# T31 construct: purchased DiscoveRx Corporation (KinomeScan)
# Protocol: as §1, §2
# [32] = molecular target: T32, LRRK2 (Homo sapiens, UniProt Q5S007)
# T32 construct: purchased DiscoveRx Corporation (KinomeScan)
# Protocol: as §1, §2
# [33] = molecular target: T33, CAMK2G (Homo sapiens, UniProt Q13555)
# T33 construct: purchased DiscoveRx Corporation (KinomeScan)
# Protocol: as §1, §2
# [34] = molecular target: T34, NIM1 (Homo sapiens, UniProt Q8IY84)
# T34 construct: purchased DiscoveRx Corporation (KinomeScan panel)
# Protocol: as §1, §2
# [35] = molecular target: T35, MRCKA (Homo sapiens, UniProt Q5VT25)
# T35 construct: purchased DiscoveRx Corporation (KinomeScan)
# Protocol: as §1, §2
smiles,measurement,setting,value
"CCOP(=O)(CN1CCC(COc2cc3nccc(Oc4ccc(NC(=O)C5(C(=O)Nc6ccc(F)cc6)CC5)cc4F)c3cc2OC)CC1)OCC [Example 10, N1-[4-[[7-[[1-(diethoxyphosphorylmethyl)-4-piperidinyl]methoxyl]-6-methoxyl-4-quinolyl]oxyl]-3-fluorophenyl]-N1′-(4-fluorophenyl)cyclopropane-1,1-dicarboxamide]",% Ctrl@1000 nM,[1],58 % Ctrl
same,% Ctrl@1000 nM,[2],67 % Ctrl
same,% Ctrl@1000 nM,[3],100 % Ctrl
same,% Ctrl@1000 nM,[4],47 % Ctrl
same,% Ctrl@1000 nM,[5],100 % Ctrl
same,% Ctrl@1000 nM,[6],100 % Ctrl
same,% Ctrl@1000 nM,[7],100 % Ctrl
same,% Ctrl@1000 nM,[8],100 % Ctrl
same,% Ctrl@1000 nM,[9],1.8 % Ctrl
same,% Ctrl@1000 nM,[10],29 % Ctrl
same,% Ctrl@1000 nM,[11],100 % Ctrl
same,% Ctrl@1000 nM,[12],4 % Ctrl
same,% Ctrl@1000 nM,[13],82 % Ctrl
same,% Ctrl@1000 nM,[14],32 % Ctrl
same,% Ctrl@1000 nM,[15],100 % Ctrl
same,% Ctrl@1000 nM,[16],98 % Ctrl
same,% Ctrl@1000 nM,[17],100 % Ctrl
same,% Ctrl@1000 nM,[18],92 % Ctrl
same,% Ctrl@1000 nM,[19],100 % Ctrl
same,% Ctrl@1000 nM,[20],0 % Ctrl
same,% Ctrl@1000 nM,[21],74 % Ctrl
same,% Ctrl@1000 nM,[22],53 % Ctrl
same,% Ctrl@1000 nM,[23],85 % Ctrl
same,% Ctrl@1000 nM,[24],100 % Ctrl
same,% Ctrl@1000 nM,[25],100 % Ctrl
same,% Ctrl@1000 nM,[26],45 % Ctrl
same,% Ctrl@1000 nM,[27],100 % Ctrl
same,% Ctrl@1000 nM,[28],66 % Ctrl
same,% Ctrl@1000 nM,[29],20 % Ctrl
same,% Ctrl@1000 nM,[30],93 % Ctrl
same,% Ctrl@1000 nM,[31],2.4 % Ctrl
same,% Ctrl@1000 nM,[32],100 % Ctrl
same,% Ctrl@1000 nM,[33],100 % Ctrl
same,% Ctrl@1000 nM,[34],100 % Ctrl
same,% Ctrl@1000 nM,[35],100 % Ctrl

# Source: patent US8933230B2, “Phosphorus-containing group-substituted quinoline, its preparation process, medical composition containing the compounds and application” (priority 2011, dated 2015)
